Experimental data reported in patent US20140296266A1, “THERAPEUTIC COMPOUNDS” (Gilead Sciences, Inc., priority 2013, published 2014).

Columns and labels:
[1] = Test B: Cytotoxicity Assay; assay type: cell-based; conditions: human, uninfected MT-4 cells, same protocol as Test A, CellTiter-Glo
Protocol: (§1) For the antiviral assay, 40 μL of 1× test concentration of 3-fold serially diluted compound in culture medium with 10% FBS was added to each well of a 384-well plate (10 concentrations) in quadruplicate. MT-4 cells were next mixed with HIV-IIIb at an m.o.i of 0.003 for 1 hour, after which time 35 μL of virus/cell mixture (2000 cells) was immediately added to each well containing 40 μL of diluted compound. The plates were then incubated at 37° C. for 5 days. After 5 days of incubation, 25 μl of 2× concentrated CellTiter-Glo™ Reagent (catalog #G7571, Promega Biosciences, Inc., Madison, Wis.) was added to each well containing MT-4 cells. Cell lysis was carried out by incubating at room temperature for 10 min and then chemiluminescence was read.
Compound cytotoxicity and the corresponding CC50 values was determined using the same protocol as described in the antiviral assay (Test A) except that uninfected cells were used.

HIV-IIIb = experiment: Test A: Antiviral Assay in MT4 Cells; assay type: cell-based, HIV-1; conditions: MT-4 cells mixed with HIV-IIIb (m.o.i. 0.003), 5 days, CellTiter-Glo, calculated from the dose response curve; for inhibition at 2 µM: Human immunodeficiency virus 1, IIIB, MT4, 120 h, read-out: % inhibition at 2 μM (percent inhibition of virus-induced cell killing), 2 μM drug concentration
Protocol: as §1

SMILES	CC50 at 5 days [1]	inhibition at 2 µM (HIV-IIIb)	% inhibition at 2 μM (percent inhibition of virus-induced cell killing) (HIV-IIIb; 2 μM drug concentration)
NC(=O)c1ccc(-c2cnc3[nH]ccc3c2)c([C@H](Cc2cc(F)cc(F)c2)NC(=O)Cn2nc(C(F)F)c3c2C(F)(F)CCC3(F)F)n1 [Compound 1B, (S)-6-(1-(2-(3-(difluoromethyl)-4,4,7,7-tetrafluoro-4,5,6,7-tetrahydro-1H-indazol-1-yl)acetamido)-2-(3,5-difluorophenyl)ethyl)-5-(1H-pyrrolo[2,3-b]pyridin-5-yl)picolinamide]	8.57 µM	77%	–
CC(C)(O)C#Cc1ccc(-c2cccc3c(=O)[nH]cnc23)c([C@H](Cc2cc(F)cc(F)c2)NC(=O)Cn2nc(C(F)(F)F)c3c2C(F)(F)[C@@H]2C[C@H]32)n1 [Compound 2, 2-((3bS,4aR)-5,5-difluoro-3-(trifluoromethyl)-3b,4,4a,5-tetrahydro-1H-cyclopropa[3,4]cyclopenta[1,2-c]pyrazol-1-yl)-N—((S)-2-(3,5-difluorophenyl)-1-(6-(3-hydroxy-3-methylbut-1-yn-1-yl)-3-(4-oxo-3,4-dihydroquinazolin-8-yl)pyridin-2-yl)ethyl)acetamide]	14.3 µM	90%	–
CC(C)(O)C#Cc1ccc(-c2ccc3c(c2)C(=O)NC32CC2)c([C@H](Cc2cc(F)cc(F)c2)NC(=O)Cn2nc(C(F)(F)F)c3c2C(F)(F)[C@@H]2C[C@H]32)n1 [Compound 3D, 2-((3bS,4aR)-5,5-difluoro-3-(trifluoromethyl)-3b,4,4a,5-tetrahydro-1H-cyclopropa[3,4]cyclopenta[1,2-c]pyrazol-1-yl)-N—((S)-2-(3,5-difluorophenyl)-1-(6-(3-hydroxy-3-methylbut-1-yn-1-yl)-3-(3′-oxospiro[cyclopropane-1,1′-isoindolin]-5′-yl)pyridin-2-yl)ethyl)acetamide]	4.15 µM	82%	–
CC(C)(O)C#Cc1cnc([C@H](Cc2cc(F)cc(F)c2)NC(=O)Cn2nc(C(F)F)c3c2C(F)(F)CCC3(F)F)c(-c2ccc3c(c2)C(=O)NC3)c1 [Compound 4H, (S)-2-(3-(difluoromethyl)-4,4,7,7-tetrafluoro-4,5,6,7-tetrahydro-1H-indazol-1-yl)-N-(2-(3,5-difluorophenyl)-1-(5-(3-hydroxy-3-methylbut-1-ynyl)-3-(3-oxoisoindolin-5-yl)pyridin-2-yl)ethyl)acetamide]	22.8 µM	74%	–
NC(=O)c1cc(-c2ccc(-c3ccc(F)c(C(N)=O)c3)c([C@H](Cc3cc(F)cc(F)c3)NC(=O)Cn3nc(C(F)F)c4c3C(F)(F)CCC4(F)F)n2)ccc1F [Compound 5G, (S)-5,5′-(6-(1-(2-(3-(difluoromethyl)-4,4,7,7-tetrafluoro-4,5,6,7-tetrahydro-1H-indazol-1-yl)acetamido)-2-(3,5-difluorophenyl)ethyl)pyridine-2,5-diyl)bis(2-fluorobenzamide)]	> 53.2 µM	–	–
O=C(Cn1nc(C(F)F)c2c1C(F)(F)CCC2(F)F)N[C@@H](Cc1cc(F)cc(F)c1)c1nc(-c2ccc3c(c2)C(=O)NC3)ccc1-c1ccc2c(c1)C(=O)NC2 [Compound 6, (S)—N-(1-(3,6-bis(3-oxoisoindolin-5-yl)pyridin-2-yl)-2-(3,5-difluorophenyl)ethyl)-2-(3-(difluoromethyl)-4,4,7,7-tetrafluoro-4,5,6,7-tetrahydro-1H-indazol-1-yl)acetamide]	> 53.2 µM	73%	–
O=C(Cn1nc(C(F)F)c2c1C(F)(F)CCC2(F)F)N[C@@H](Cc1cc(F)cc(F)c1)c1nc(-c2cnc3[nH]ccc3c2)ccc1-c1cnc2[nH]ccc2c1 [Compound 7, (S)—N-(1-(3,6-bis(1H-pyrrolo[2,3-b]pyridin-5-yl)pyridin-2-yl)-2-(3,5-difluorophenyl)ethyl)-2-(3-(difluoromethyl)-4,4,7,7-tetrafluoro-4,5,6,7-tetrahydro-1H-indazol-1-yl)acetamide]	5.66 µM	92%	–
COc1cc(-c2ccc(-c3ccc4c(c3)C(=O)NC4)c([C@H](Cc3cc(F)cc(F)c3)NC(=O)Cn3nc(C(F)F)c4c3C(F)(F)CCC4(F)F)n2)ccn1 [Compound 8C, (S)-2-(3-(difluoromethyl)-4,4,7,7-tetrafluoro-4,5,6,7-tetrahydro-1H-indazol-1-yl)-N-(2-(3,5-difluorophenyl)-1-(2′-methoxy-5-(3-oxoisoindolin-5-yl)-[2,4′-bipyridin]-6-yl)ethyl)acetamide]	22 µM	86%	–
CC(C)(O)C#Cc1ccc(-c2ccc3c(c2)C(=O)NC3)c([C@H](Cc2cc(F)cc(F)c2)NC(=O)Cn2nc(C(F)F)c3c2C(F)(F)CCC3(F)F)n1 [Compound 9B, (S)-2-(3-(difluoromethyl)-4,4,7,7-tetrafluoro-4,5,6,7-tetrahydro-1H-indazol-1-yl)-N-(2-(3,5-difluorophenyl)-1-(6-(3-hydroxy-3-methylbut-1-yn-1-yl)-3-(3-oxoisoindolin-5-yl)pyridin-2-yl)ethyl)acetamide]	14.6 µM	95%	–
O=C(Cn1nc(C(F)F)c2c1C(F)(F)CCC2(F)F)N[C@@H](Cc1cc(F)cc(F)c1)c1ncc(-c2ccc3c(c2)C(=O)NC3)cc1-c1ccc2c(c1)C(=O)NC2 [Compound 10B, (S)—N-(1-(3,5-bis(3-oxoisoindolin-5-yl)pyridin-2-yl)-2-(3,5-difluorophenyl)ethyl)-2-(3-(difluoromethyl)-4,4,7,7-tetrafluoro-4,5,6,7-tetrahydro-1H-indazol-1-yl)acetamide]	> 53.2 µM	85%	–
O=C(Cn1nc(C(F)F)c2c1C(F)(F)CCC2(F)F)N[C@@H](Cc1cc(F)cc(F)c1)c1ncc(-c2cnc3[nH]ccc3c2)cc1-c1cnc2[nH]ccc2c1 [Compound 11, (S)—N-(1-(3,5-di(1H-pyrrolo[2,3-b]pyridin-5-yl)pyridin-2-yl)-2-(3,5-difluorophenyl)ethyl)-2-(3-(difluoromethyl)-4,4,7,7-tetrafluoro-4,5,6,7-tetrahydro-1H-indazol-1-yl)acetamide]	> 53.2 µM	66%	–
O=C(Cn1nc(C(F)F)c2c1C(F)(F)CCC2(F)F)N[C@@H](Cc1cc(F)cc(F)c1)c1nc(-c2cc[nH]c(=O)c2)ccc1-c1ccc2c(c1)C(=O)NC2 [Compound 12, (S)-2-(3-(difluoromethyl)-4,4,7,7-tetrafluoro-4,5,6,7-tetrahydro-1H-indazol-1-yl)-N-(2-(3,5-difluorophenyl)-1-(2′-oxo-5-(3-oxoisoindolin-5-yl)-1′,2′-dihydro-[2,4′-bipyridin]-6-yl)ethyl)acetamide]	> 53.2 µM	58%	–
O=C(Cn1nc(C(F)F)c2c1C(F)(F)CCC2(F)F)N[C@@H](Cc1cc(F)cc(F)c1)c1nc(-c2cc[nH]c(=O)c2)ccc1-c1cc[nH]c(=O)c1 [Compound 13, (S)-2-(3-(difluoromethyl)-4,4,7,7-tetrafluoro-4,5,6,7-tetrahydro-1H-indazol-1-yl)-N-(2-(3,5-difluorophenyl)-1-(2,2″-dioxo-1,1″,2,2″-tetrahydro-[4,2′:5′,4″-terpyridin]-6′-yl)ethyl)acetamide]	> 53.2 µM	0%	–
CC(C)(O)C#Cc1ccc(-c2cccc3c2CNC3=O)c([C@H](Cc2cc(F)cc(F)c2)NC(=O)Cn2nc(C(F)(F)F)c3c2C(F)(F)[C@@H]2C[C@H]32)n1 [Compound 14E, 2-((3bS,4aR)-5,5-difluoro-3-(trifluoromethyl)-3b,4,4a,5-tetrahydro-1H-cyclopropa[3,4]cyclopenta[1,2-c]pyrazol-1-yl)-N—((S)-2-(3,5-difluorophenyl)-1-(6-(3-hydroxy-3-methylbut-1-yn-1-yl)-3-(1-oxoisoindolin-4-yl)pyridin-2-yl)ethyl)acetamide]	6.82 µM	89%	–
O=C(Cn1nc(C(F)F)c2c1C(F)(F)CCC2(F)F)N[C@@H](Cc1cc(F)cc(F)c1)c1nc(-c2c[nH]nn2)ccc1-c1cnc2[nH]ccc2c1 [Compound 16C]	–	–	65%
CC(C)(O)C#Cc1ccc(-c2cccc3c(=O)[nH]c(=O)[nH]c23)c([C@H](Cc2cc(F)cc(F)c2)NC(=O)Cn2nc(C(F)(F)F)c3c2C(F)(F)[C@@H]2C[C@H]32)n1 [Compound 17, 2-((3bS,4aR)-5,5-difluoro-3-(trifluoromethyl)-3b,4,4a,5-tetrahydro-1H-cyclopropa[3,4]cyclopenta[1,2-c]pyrazol-1-yl)-N—((S)-2-(3,5-difluorophenyl)-1-(3-(2,4-dioxo-1,2,3,4-tetrahydroquinazolin-8-yl)-6-(3-hydroxy-3-methylbut-1-ynyl)pyridin-2-yl)ethyl)acetamide]	12.6 µM	80%	–
CC(C)(O)C#Cc1ccc(-c2ccc(F)c(C(N)=O)c2)c([C@H](Cc2cc(F)cc(F)c2)NC(=O)Cn2nc(C(F)(F)F)c3c2C(F)(F)[C@@H]2C[C@H]32)n1 [Compound 18, 5-(2-((S)-1-(2-((3bS,4aR)-5,5-difluoro-3-(trifluoromethyl)-3b,4,4a,5-tetrahydro-1H-cyclopropa[3,4]cyclopenta[1,2-c]pyrazol-1-yl)acetamido)-2-(3,5-difluorophenyl)ethyl)-6-(3-hydroxy-3-methylbut-1-yn-1-yl)pyridin-3-yl)-2-fluorobenzamide]	6.93 µM	–	–
